The test system of the experiment is Streptozotocin-injected male Wistar rats. Kind of experiment: Glycemia over 24 days in streptozotocin (60 mg/kg) rats given betaine in drinking water (Example 4). The settings on record: 200 mg/kg/day in drinking water, STZ 60 mg/kg rats, FIG. 4. The format is in vivo, rat. How it is done: Male Wistar rats (+250 g) after 1 week stabulation are injected Streptozotocin 60 mg/kg intraperitoneally. Animals (n=8/group) were fed with normal chow and water ad libitum during 5 days, then at day 1 (T0) Betaine (200 mg/kg/day) or placebo were dissolved and administrated daily in drinking water during 24 days; full access to normal chow was maintained during the whole experiments. Glycemia was measured morning at days of experiments, in non-fastened rats (as in previous exp.). At T0+7 days the treatments were inverted between the 2 groups.

Turning to `C[N+](C)(C)CC(=O)O` [glycine betaine], the “effect on the regulation of blood glucose” value was “per se possesses an effect on the regulation of blood glucose”.

The values are drawn from US7786077B2, “Insulins combinations” (priority 2005, dated 2010).
